Source: patent US20220267365A1, “NOVEL PHOSPHATE ESTER COMPOUND HAVING PYRROLOPYRIMIDINE SKELETON OR PHARMACEUTICALLY ACCEPTABLE SALT THEREOF” (TAIHO PHARMACEUTICAL CO., LTD., priority 2019, published 2022)

Legend:
Format in all cases: cell-based
[1] = test system: human brain tumor cell line (U-87 MG); test: Test Example 9: combinational effect of compound and temozolomide (TMZ), crystal violet cell viability; settings: any order (same-day, compound first, TMZ first), Student's t-test
Description: A human brain tumor cell line (U-87 MG) was suspended in a medium, seeded in individual wells of a multi-well plate and cultured. In the case where two compounds are simultaneously added, both compounds were added on two days after initiation of culture. In the case where addition of the compound of the present invention preceded, a serially diluted solution of the compound was added on the day after initiation of culture and a serially diluted solution of TMZ was added two days after initiation of culture. In the case where addition of TMZ preceded, a serially diluted solution of TMZ was added on the day after initiation of culture and a serially diluted solution of the compound was added on two days after initiation of culture. Day 5 after seeding, cells were fixed with a 25% aqueous solution of glutaraldehyde and stained with a staining fluid (0.05 w/v % crystal violet in 20% methanol). After an extract (0.1 N NaH2PO4:100% ethanol=1:1) was added and stirred, an absorbance at 540 nm was measured to obtain a cell count. The cell viability was calculated in accordance with the following equation and statistically processed in accordance with a Student's t-test.
(§1) Cell viability (%)=(T/C)×100
T: Absorbance of a well containing TMZ or a compound
C: Absorbance of a well containing neither TMZ nor a compound

HCC827 = test: Test Example 4 growth suppression activity, CellTiter-Glo; settings: 72 h; HCC827, Human lung cancer, 3 days
Description: (§2) Human tumor cell lines different in type were suspended in mediums, seeded in individual wells of a multi-well plate and cultured. On the day after initiation of culture, serially diluted solutions of a compound were added. Culture was carried out for further 3 days. Cells were counted by a CellTiter-Glo (manufactured by Promega KK) in accordance with the protocol recommended by Promega KK. Cell viability was calculated in accordance with the equation shown below and the concentration (IC50 (nM)) of the compound at which 50% of cell growth is inhibited was obtained.
as §1
(§3) T: Intensity of light emitted from a well containing a compound
(§4) C: Intensity of light emitted from a well containing no compound

SK-BR-3 = test: as above; settings: 72 h; SK-BR-3, Human breast cancer, 3 days
Description: as §2, §1, §3, §4

A431 = test: as above; settings: A-431, 72 h; A431, Human epidermoid carcinoma, 3 days
Description: as §2, §1, §3, §4

H358 = test: as above; settings: NCI-H358, 72 h; H358, Human lung cancer, 3 days
Description: as §2, §1, §3, §4

H2122 = test: as above; settings: NCI-H2122, 72 h; H2122, Human lung cancer, 3 days
Description: as §2, §1, §3, §4

H1650 = test: as above; settings: NCI-H1650, 72 h; H1650, Human lung cancer, 3 days
Description: as §2, §1, §3, §4

A549 = test: as above; settings: 72 h; A549, Human lung cancer, 3 days
Description: as §2, §1, §3, §4

[2] = test system: human brain tumor cell line (U-87 MG); test: Test Example 8: combination use of compound and radiation, crystal violet cell viability; settings: any order (same-day, compound first, radiation first), Student's t-test
Description: A human brain tumor cell line (U-87 MG) was suspended in a medium, seeded in individual wells of a multi-well plate and cultured. In the case where radiation exposure and addition of a compound are simultaneously carried out, both treatments were carried out on two days after initiation of culture. In the case where addition of a compound preceded radiation exposure, a serially diluted solution of a compound was added on the day after initiation of culture and radiation exposure was carried out on two days after initiation of culture. In the case where radiation exposure preceded addition of a compound, radiation exposure was carried out on the day after initiation of culture and a serially diluted solution of a compound was added on the two days after initiation of culture. Day 5 after seeding, cells were fixed with a 25% aqueous solution of glutaraldehyde and stained with a staining fluid (0.05 w/v % crystal violet in 20% methanol). After an extract (0.1 N NaH2PO4: 100% ethanol=1:1) was added and stirred, an absorbance at 540 nm was measured to obtain a cell count. The cell viability was calculated in accordance with the following equation and statistically processed in accordance with a Student's t-test.
as §1
T: Absorbance of a well exposed to radiation or containing a compound
C: Absorbance of a well neither exposed to radiation nor containing a compound

IC50 (HCC827): 176 nM | IC50 (SK-BR-3): 23 nM | IC50 (A431): 18 nM | IC50 (H358): 52 nM | IC50 (H2122): 9 nM | IC50 (H1650): 8 nM | IC50 (A549): 14 nM
SMILES: Nc1ncnc2c1c(I)cn2[C@@H]1O[C@H](CO)[C@@H](O)[C@@H]1F [Comparative Example 2, (2R,3R,4S,5R)-5-(4-amino-5-iodo-7H-pyrrolo[2,3-d]pyrimidin-7-yl)-4-fluoro-2-(hydroxymethyl) tetrahydrofuran-3-ol]
cell viability, combination treatment with TMZ compared to the single treatments [1]: significant decrease | cell viability, combination treatment with radiation exposure compared to the single treatments [2]: significantly decreased
